System: K12877-001-R-J1-PDC complex spheroid viability
Test: Anticancer human tumor K12877-001-R-J1-PDC patient-derived lung adenocarcinoma cell line growth inhibition [RAS]
Settings: for IC50: curve of first compound; for viability, T/C: stronger effect = lower value
In short: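 Tumour cells grown as complex spheroids with HUVEC endothelial cells and mesenchymal stem cells, treated with RAS pathway inhibitor combinations. Each agent spans half-log steps from near clinical Cmax, or 10 microM where Cmax is unknown.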

[1] = second compound 0.00316 µM, first compound 0.0316 µM
[2] = second compound 0.00316 µM, first compound 0.1 µM
[3] = second compound 0.01 µM, first compound 0.0316 µM
[4] = second compound 0.01 µM, first compound 0.1 µM
[5] = second compound 0.0316 µM, first compound 0.0316 µM
[6] = second compound 0.0316 µM, first compound 0.1 µM
[7] = second compound 0.1 µM, first compound 0.0316 µM
[8] = second compound 0.1 µM, first compound 0.1 µM
[9] = second compound 0.316 µM, first compound 0.0316 µM
[10] = second compound 0.316 µM, first compound 0.1 µM
[11] = second compound 1 µM, first compound 0.0316 µM
[12] = second compound 1 µM, first compound 0.1 µM
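Also: spheroids exposed to agents for one week before readout.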
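For viability, T/C in this document: tumour cells co-cultured with HUVEC and mesenchymal stem cells in spheroids.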

CC(C)NCC(C(=O)N1CCN(c2ncnc3c2C(C)CC3O)CC1)c1ccc(Cl)cc1 (centres undefined) + C=CC(=O)N1CCN(c2nc(OCC3CCCN3C)nc3c(F)c(-c4nc(N)cc(C)c4C(F)(F)F)c(Cl)cc23)C(C)C1
IC50 (second compound 0.00316 µM): 2.24 µM | IC50 (second compound 0.01 µM): 1.56 µM | IC50 (second compound 0.0316 µM): 1.4 µM | IC50 (second compound 0.1 µM): 1.42 µM | IC50 (second compound 0.316 µM): 0.934 µM | IC50 (second compound 1 µM): 1.54 µM | viability, T/C [1]: 87.9% | viability, T/C [2]: 86.1% | viability, T/C (second compound 0.00316 µM, first compound 0.316 µM): 74.5% | viability, T/C (second compound 0.00316 µM, first compound 1 µM): 78.4% | viability, T/C (second compound 0.00316 µM, first compound 3.16 µM): 38% | viability, T/C (second compound 0.00316 µM, first compound 10 µM): 22% | viability, T/C [3]: 82.8% | viability, T/C [4]: 89.2% | viability, T/C (second compound 0.01 µM, first compound 0.316 µM): 68.8% | viability, T/C (second compound 0.01 µM, first compound 1 µM): 65.8% | viability, T/C (second compound 0.01 µM, first compound 3.16 µM): 30.2% | viability, T/C (second compound 0.01 µM, first compound 10 µM): 18% | viability, T/C [5]: 85.5% | viability, T/C [6]: 90.6% | viability, T/C (second compound 0.0316 µM, first compound 0.316 µM): 73.3% | viability, T/C (second compound 0.0316 µM, first compound 1 µM): 63.3% | viability, T/C (second compound 0.0316 µM, first compound 3.16 µM): 23.7% | viability, T/C (second compound 0.0316 µM, first compound 10 µM): 17.6% | viability, T/C [7]: 84% | viability, T/C [8]: 71.5% | viability, T/C (second compound 0.1 µM, first compound 0.316 µM): 82.4% | viability, T/C (second compound 0.1 µM, first compound 1 µM): 63.2% | viability, T/C (second compound 0.1 µM, first compound 3.16 µM): 20.2% | viability, T/C (second compound 0.1 µM, first compound 10 µM): 16.7% | viability, T/C [9]: 79.9% | viability, T/C [10]: 79.9% | viability, T/C (second compound 0.316 µM, first compound 0.316 µM): 68.2% | viability, T/C (second compound 0.316 µM, first compound 1 µM): 51% | viability, T/C (second compound 0.316 µM, first compound 3.16 µM): 23.5% | viability, T/C (second compound 0.316 µM, first compound 10 µM): 19.5% | viability, T/C [11]: 87.8% | viability, T/C [12]: 75.7% | viability, T/C (second compound 1 µM, first compound 0.316 µM): 84.4% | viability, T/C (second compound 1 µM, first compound 1 µM): 58.6% | viability, T/C (second compound 1 µM, first compound 3.16 µM): 33.9% | viability, T/C (second compound 1 µM, first compound 10 µM): 20.9%

CC(C)n1nc(-c2ccc3oc(N)nc3c2)c2c(N)ncnc21 + C=CC(=O)N1CCN(c2nc(OCC3CCCN3C)nc3c(F)c(-c4nc(N)cc(C)c4C(F)(F)F)c(Cl)cc23)C(C)C1
IC50 (second compound 0.00316 µM): 0.0201 µM | IC50 (second compound 0.01 µM): 0.0204 µM | IC50 (second compound 0.0316 µM): 0.0174 µM | IC50 (second compound 0.1 µM): 0.0154 µM | IC50 (second compound 0.316 µM): 0.0142 µM | IC50 (second compound 1 µM): 0.0164 µM | viability, T/C (second compound 0.00316 µM, first compound 0.000316 µM): 97.8% | viability, T/C (second compound 0.00316 µM, first compound 0.001 µM): 98.3% | viability, T/C (second compound 0.00316 µM, first compound 0.00316 µM): 90.6% | viability, T/C (second compound 0.00316 µM, first compound 0.01 µM): 73.3% | viability, T/C [1]: 34.9% | viability, T/C [2]: 17.7% | viability, T/C (second compound 0.01 µM, first compound 0.000316 µM): 88.9% | viability, T/C (second compound 0.01 µM, first compound 0.001 µM): 89.2% | viability, T/C (second compound 0.01 µM, first compound 0.00316 µM): 81.8% | viability, T/C (second compound 0.01 µM, first compound 0.01 µM): 79.3% | viability, T/C [3]: 32.1% | viability, T/C [4]: 15.2% | viability, T/C (second compound 0.0316 µM, first compound 0.000316 µM): 83.8% | viability, T/C (second compound 0.0316 µM, first compound 0.001 µM): 74.4% | viability, T/C (second compound 0.0316 µM, first compound 0.00316 µM): 78.4% | viability, T/C (second compound 0.0316 µM, first compound 0.01 µM): 71.4% | viability, T/C [5]: 27.1% | viability, T/C [6]: 14.4% | viability, T/C (second compound 0.1 µM, first compound 0.000316 µM): 75.6% | viability, T/C (second compound 0.1 µM, first compound 0.001 µM): 78.5% | viability, T/C (second compound 0.1 µM, first compound 0.00316 µM): 73.9% | viability, T/C (second compound 0.1 µM, first compound 0.01 µM): 65.5% | viability, T/C [7]: 24.7% | viability, T/C [8]: 14.5% | viability, T/C (second compound 0.316 µM, first compound 0.000316 µM): 82.9% | viability, T/C (second compound 0.316 µM, first compound 0.001 µM): 70% | viability, T/C (second compound 0.316 µM, first compound 0.00316 µM): 70.9% | viability, T/C (second compound 0.316 µM, first compound 0.01 µM): 61.6% | viability, T/C [9]: 25.5% | viability, T/C [10]: 14.6% | viability, T/C (second compound 1 µM, first compound 0.000316 µM): 72.6% | viability, T/C (second compound 1 µM, first compound 0.001 µM): 77.8% | viability, T/C (second compound 1 µM, first compound 0.00316 µM): 84.1% | viability, T/C (second compound 1 µM, first compound 0.01 µM): 68.3% | viability, T/C [11]: 25.2% | viability, T/C [12]: 14.4%
